This note sets out measurements from article PMC12186257, “Serendipitous and Systematic Chemoproteomic Discovery of MBLAC2, HINT1, and NME1‑4 Inhibitors from Histone Deacetylase-Targeting Pharmacophores” (ACS Chemical Biology, 2025).

The target of test [1] is recombinant HINT1 (hHint1) (Homo sapiens, UniProt P49773). Kind of test: HINT1 enzyme activity assay (TrpA hydrolysis, fluorescence). Type of test: biochemical. To be noted: hHint1 0.002 µM, TrpA 0.5 µM, 25 °C. The source says: While the biologically relevant substrates of HINT1 have not been clearly elucidated, the protein has been implicated in opioid receptor signaling, − regulation of the melanoma-associated transcription factor MITF, , and DNA damage repair. These functions position HINT1 as a potential pharmacological target for treating conditions such as opioid resistance or melanoma. The only reported HINT1-targeting pharmacophores are nucleoside-based nonhydrolyzable substrate analogs, such as the carbamate TrpGC (Figure a). , We evaluated the inhibitory potential of KV-24 and KV-30 in enzyme activity assays using recombinant HINT1. […] This discrepancy could be attributed to reduced affinity for the recombinant enzyme due to the absence of post-translational modifications (PTMs), cofactors, or interaction partners that enhance drug binding. Alternatively, it might result from substrate dilution in the lysate, whereas high substrate concentrations in the enzyme activity assay require the inhibitor to compete more effectively.
Mouse brain proteomics – LC-MS/MS. Proteome analysis of brain mouse tissue samples was performed on a micro-flow LC timsTOF HT setup described in detail in REF14. Liquid chromatography in micro-flow mode was performed on a Vanquish Neo UHPLC System (Thermo Fisher Scientific) at a flow rate of 50 µL/min. […] 10 µg of peptide mix was injected and analyzed using a 58 min gradient starting at 1% B up to 45% B (1 h method). […]
Mouse proteomics data analysis. The data files were analyzed with DIA-NN 1.8.1. […] The resulting protein group tables were further analyzed by Perseus 1.6.2.2. […]
CME of transferrin and confocal microscopy analyses.For transferrin uptake experiments HeLa cells were seeded on Matrigel-coated coverslips, and incubated with 0.1 % DMSO, or with 100 µM dynasore, 20 µM KV50, 2 µM KV65, or 2 µM KV79 in media containing 10% FCS at 37°C for 20 h. […] All inhibitor treatments were performed in duplicate, to enable quantification of surface levels of transferrin receptors, and to assess the capability of transferrin receptor endocytosis. […]

The test system of the next test is recombinant NME1–4. Kind of test: nucleoside diphosphate kinase activity assay (ATP production from ADP and GTP, Kinase-GLO). Type of test: biochemical. The conditions noted are these: in vitro.

recombinant HINT1 (hHint1), sequence (P49773 whole entry): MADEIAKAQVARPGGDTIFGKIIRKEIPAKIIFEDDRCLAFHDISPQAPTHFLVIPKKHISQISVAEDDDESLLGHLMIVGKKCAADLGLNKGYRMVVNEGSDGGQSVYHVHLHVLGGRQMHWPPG
Description for recombinant NME1–4: To evaluate whether KV-50 binding affects NME activity, we performed enzyme activity assays using recombinant NME1–4. The assay measured NME-catalyzed production of ATP from ADP (150 μM) and GTP (150 μM).
Nucleotide diphosphate kinase activity assays. The phosphotransfer activity of the NDPKs (NME1-4) was measured in a reaction mixture containing buffer A (20 mM Tris-HCl pH 8.0, 150 mM NaCl, and 1 mM MgCl2). All the samples were pipetted in replicates on a 384 well plate. One volume of the respective NDPK protein solution (NME1-4) was added from stock proteins (diluted in buffer a to a concentration of 300 pM) to the wells in four replicates. To these wells, one volume of the inhibitors (Six dilutions were prepared, starting with a 30 µM stock solution and then performing three-fold serial dilutions) was added and incubated at room temperature for 30 minutes. Then, one volume of the substrate mixture (300 μM GTP and 30 μM ADP) was added to the protein-inhibitor mixture-containing wells and incubated at room temperature for 30 minutes. Finally, three volumes of the Kinase-GLO reagent (Promega V6711) containing an ATP-dependent firefly luciferase were added to all the wells and five minutes later, the luminescence was measured using a plate reader. Eight different concentrations of ATP (0 - 10 μM) were used as standards for a calibration curve to calculate the amount of ATP produced by the different NDPKs.

For orientation: IC50 means the midpoint of a concentration-inhibition curve. As to `O=C(NO)c1ccc(-c2nc3ccccc3n3cccc23)cc1` [KV-24], the IC50 in test [1] was found to be 12.3 µM. Further, in the test with recombinant NME1–4, the “effect on NME enzyme activity” value is listed as “only modestly reduced NME enzyme activity”.
For `O=C(NO)c1ccc(-c2nc3ccccc3c3ccccc23)cc1` [KV-30] the same measures were 12.6 µM and “only modestly reduced NME enzyme activity”.
